According to patent publication US11760754B2, “Heterocyclic mitochondrial activity inhibitors and uses thereof” (UNIVERSITÉ DE MONTRÉAL, priority 2017, dated 2023):

Assays:
OCI-AML3 cells = test: OCI-AML3 cell growth inhibition, dose-response viability assay (CellTiterGlo); type: cell-based; details: for EC50: Homo sapiens, OCI-AML-3, 144 h, read-out: AML-3 EC50
Method in brief: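 OCI-AML3 cells seeded, then exposed to compound in serial dilutions from 10 μM to 0.5 nM, in duplicate or quadruplicate. Viability read by CellTiter-Glo.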

AML patient cells = test: Primary AML patient cell dose-response viability assay (chemical screen); details: 41 AML patient specimens, primary screen
MLL-AF9 cells = test: MLL-AF9 leukemia cell growth inhibition, dose-response viability assay (CellTiterGlo); type: cell-based, murine; details: Mus musculus, MLL-AF9, 120 h, read-out: MLL-AF9 EC50
Method in brief: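 Murine MLL-AF9 leukemia cells (female, MSCV MLL-AF9 IRES Puro transduced) were treated with serial compound dilutions from 10 μM to 0.5 nM in duplicates or quadruplicates. Viability read by CellTiterGlo dose-response.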

Structure (SMILES)	OCI-AML3 cells sensitive to the compound (dose response) (OCI-AML3 cells; OCI-AML3 cells)	sensitivity of AML patient specimens (AML patient cells)	EC50 (OCI-AML3 cells) [nM]	EC50 (MLL-AF9 cells) [nM]
CS(=O)(=O)CCNCc1ccc(-c2ccc3ncnc(Nc4ccc(OCc5cccc(F)c5)c(Cl)c4)c3c2)o1 [Lapatinib, Lapatinib ditosylate, reference compound]	not	resistant	–	–
Fc1cc(C(F)(F)F)ccc1/C=C/c1nc(COc2ccc(COCCn3ccnn3)cc2)co1 [Compound 115, (E)-4-((4-((2-(1H-1,2,3-triazol-1-yl)ethoxy)methyl)phenoxy)methyl)-2-(2-fluoro-4-(trifluoromethyl)styryl)oxazole]	–	–	500 to 1000	100 to 500
O=C(CCCn1ccnn1)c1ccc(OCc2coc(/C=C/c3ccc(C(F)(F)F)cc3F)n2)cc1 [Compound 22, (E)-1-(4-((2-(2-fluoro-4-(trifluoromethyl)styryl)oxazol-4-yl)methoxy)phenyl)-4-(1H-1,2,3-triazol-1-yl)butan-1-one]	–	–	500 to 1000	100 to 500
NCCc1cn(CCCCc2ccc(OCc3coc(/C=C/c4ccc(C(F)(F)F)cc4)n3)cc2)nn1 [Compound 13, (E)-2-(1-(4-(4-((2-(4-(trifluoromethyl)styryl)oxazol-4-yl)methoxy)phenyl)butyl)-1H-1,2,3-triazol-4-yl)ethanamine]	–	–	1000 to 10000	1000 to 10000
O=[N+]([O-])c1ccc(/C=C/c2nc(COc3ccc(CCCCn4ccnn4)cc3)co2)c(F)c1 [Compound 65, (E)-4-((4-(4-(1H-1,2,3-triazol-1-yl)butyl)phenoxy)methyl)-2-(2-fluoro-4-nitrostyryl)oxazole]	–	–	50 to 100	< 50
